According to PubChem BioAssay (NCI):
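Grown in 96-well plates, cells were treated for 48 hours with each compound at five concentrations. Insufficient inhibition: endpoint recorded as highest concentration tested. The concentration for full growth arrest is given as TGI.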

Assays:
Assay in all cases: DTP human tumour cell line panel, 48 h
[1] = tested on: UO-31 renal
[2] = tested on: UACC-62 melanoma
[3] = tested on: SNB-19 CNS
[4] = tested on: NCI-H460 lung
[5] = tested on: SR leukemia
[6] = tested on: PC-3 prostate
[7] = tested on: K-562 leukemia
[8] = tested on: UACC-257 melanoma
[9] = tested on: SF-268 CNS
[10] = tested on: NCI-H226 lung
[11] = tested on: SF-295 CNS
[12] = tested on: HS 578T breast
[13] = tested on: MALME-3M melanoma
[14] = tested on: CCRF-CEM leukemia
[15] = tested on: SNB-75 CNS
[16] = tested on: A549 NSCLC
[17] = tested on: MDA-MB-231 breast
[18] = tested on: CAKI-1 renal
[19] = tested on: HCC-2998 colon
[20] = tested on: HCT-15 colon

Row | SMILES | TGI [1] [µM] | TGI [2] [µM] | TGI [3] [µM] | TGI [4] [µM] | TGI [5] [µM] | TGI [6] [µM] | TGI [7] [µM] | TGI [8] [µM] | TGI [9] [µM] | TGI [10] [µM] | TGI [11] [µM] | TGI [12] [µM] | TGI [13] [µM] | TGI [14] [µM] | TGI [15] [µM] | TGI [16] [µM] | TGI [17] [µM] | TGI [18] [µM] | TGI [19] [µM] | TGI [20] [µM]
1 | CCN(CC)c1ccc2cc(C(N)=S)c(=N)oc2c1 | > 100 | > 100 | > 100 | > 100 | > 100 | > 100 | > 100 | > 100 | > 100 | > 100 | > 100 | > 100 | > 100 | > 100 | > 100 | > 100 | > 100 | > 100 | > 100 | > 100
2 | CC[C@@H]1C(=O)OC[C@@H]1Cc1cncn1C | > 100 | > 100 | > 100 | > 100 | > 100 | > 100 | > 100 | > 100 | > 100 | > 100 | > 100 | > 100 | > 100 | > 100 | > 100 | > 100 | > 100 | > 100 | > 100 | > 100
3 | O=C1c2ccccc2CN1c1ccc(OCCN2CCCCC2)cc1 | > 10 | > 10 | > 10 | > 10 | > 10 | > 10 | > 10 | > 10 | > 10 | > 10 | > 10 | > 10 | > 10 | > 10 | > 10 | > 10 | > 10 | > 10 | > 10 | > 10
4 | COC(=O)c1ccccc1C1CN=NC12Cc1ccccc1C2=O (centres undefined) | > 100 | > 100 | > 100 | > 100 | > 100 | > 100 | > 100 | > 100 | > 100 | > 100 | > 100 | > 100 | > 100 | > 100 | > 100 | > 100 | > 100 | > 100 | > 100 | > 100
5 | O=C1CCCCCCCCCCC1CCCCCBr (centres undefined) | 65.9 | > 100 | 64.7 | > 100 | 44.1 | > 100 | 34.5 | 58.5 | > 100 | 40 | > 100 | > 100 | 38.4 | 35 | 49.8 | > 100 | 45.1 | 95.1 | 38.6 | 56.8
6 | Cc1cccc2c1C(=O)[C@](C)([C@]1(C)Nc3cccc(C)c3C1=O)N2 | 51.8 | > 100 | > 100 | > 100 | 93.5 | > 100 | > 100 | > 100 | 55.8 | > 100 | 68.9 | 67.8 | > 100 | 48.3 | 41.2 | > 100 | > 100 | 69.2 | > 100 | > 100
7 | CCOC(=O)CCC(NC(=O)c1ccc(Oc2nc3ccccc3nc2-c2ccccc2)cc1)C(=O)OCC (centres undefined) | > 100 | > 100 | > 77 | > 100 | > 100 | > 100 | > 100 | > 100 | 28.2 | 33 | > 60.7 | 27.3 | 33 | > 100 | 26.2 | > 100 | 65.9 | > 66.4 | > 100 | > 100
8 | CC1(C)CCc2c(c(N=Nc3ccc(S(N)(=O)=O)cc3)c3ccccc3c2O)O1 | 40.4 | 34.3 | 39 | 24.3 | 58.3 | 36.1 | > 100 | 21.3 | 84.9 | 57.5 | 24 | > 100 | 15.8 | 24.3 | 16.6 | 30.2 | 8.77 | 62.1 | 15.9 | 43.9
9 | Oc1cc2c3c(c1)CCCN3CCC2 |  | > 10 | > 10 | > 10 | > 10 | > 10 | > 10 | > 10 | > 10 | > 10 | > 10 | > 10 | > 10 | > 10 | > 10 | > 10 | > 10 | > 10 | > 10 | > 10
10 | N#CC1C(=O)SC2c3ccccc3C(=O)c3ccccc3C12 (centres undefined) | > 10 | > 10 | > 10 | > 10 | > 10 | > 10 | > 10 | > 10 | > 10 | > 10 | > 10 | > 10 | > 10 | > 10 | > 10 | > 10 | > 10 | > 10 | > 10 | > 10
11 | CCn1c(SCC(=O)N/N=C/c2ccccc2)nc2ccccc2c1=O | > 100 | 52.1 | 71.3 | 9.63 | 5.34 | > 46.4 | > 100 | > 100 | > 70.2 | 67.6 | 33.1 | 49.3 | > 94.6 | > 100 | 54.5 | > 46.4 | 80.8 | 22.4 | > 100 | > 100
12 | Cc1cc(C)nc(NS(=O)(=O)c2ccc(NNc3c4ccccc4nc4c(C(=O)Nc5ccc(S(N)(=O)=O)cc5)cccc34)cc2)n1 | > 100 | > 100 | > 100 | > 100 | 73.3 | 32.9 | > 100 | > 100 | > 100 | > 100 | > 100 | > 100 | > 100 | 83.6 | 33 | > 100 | 89 | > 100 | 84.3 | > 100
